Assay results published in patent EP0472800A1, “Metoprololnicotinic acid ester, method of preparation and pharmaceutical use” (Sandmeier, Peter, Dr., priority 1990, dated 1992).
Structures can show the parent of a compound that is named as a salt.

Parameters: species or system Hunden
Settings: dog, in vivo, 0 min
Description: Die verhältnismässig einfache Synthese führt zu einer bemerkenswert hohen Ausbeute des erfinderischen Moleküls, der Metoprololnicotinsäure. Die an Hunden experimentierte Prodrugwirkung in drei verschiedenenen Dosen ergab folgende Retardwerte: (µg freie Base im Zielkompartiment)
Das Resultat zeigt, dass eine relativ hohe Konzentration im Plasma bis zu vier Stunden erwartet werden kann, was die deutlich retardierte Prodrugwirkung beweist. Die Dosis C zeigt unter anderem, dass auch kleine Konzentrationen einen langanhaltenden Spiegel zeigen.

COCCc1ccc(OCC(CNC(C)C)OC(=O)c2cccnc2)cc1 (racemic) [Metoprololnicotinsäure, Metoprololnicotinsäureester-HCl]
freie Base im Zielkompartiment (Retardwerte): 0 µg
